Test results as given in ChEMBL document CHEMBL4390670, “4-Aryl Pyrrolidines as a Novel Class of Orally Efficacious Antimalarial Agents. Part 1: Evaluation of 4-Aryl- N-benzylpyrrolidine-3-carboxamides” (J Med Chem, 2019).
pIC50: −log10 of the molar value. Activity calls are given as the source filed them. The rule behind the calls is not given here.

Tests used:
[1] = target: Voltage-gated inwardly rectifying potassium channel KCNH2 (Homo sapiens, UniProt Q12809)
Description: Inhibition of Tracer Red binding to human ERG expressed in membranes by fluorescence polarization assay

[2] = tested on: hERG; assay: in vitro; details: human, membranes expressing human ERG, probe Tracer Red
Description: Selectivity ratio of IC50 for inhibition of Tracer Red binding to human ERG expressed in membranes to IC50 for chloroquine-sensitive Plasmodium falciparum 3D7

[3] = tested on: Plasmodium falciparum; assay: microbe, parasite or virus in culture; details: 3D7, 72 h
Description: (§1) Antimalarial activity against chloroquine-sensitive Plasmodium falciparum 3D7 measured after 72 hrs by SYBR Green 1 dye based fluorescence assay

[4] = tested on: Plasmodium falciparum
Description: as §1

[5] = Half life in mouse liver microsomes at 1 uM measured after 30 mins in presence of NADPH by LC-MS/MS analysis; assay type: ADME, Microsome; details: for t1/2: microsomes, 0.5 h, 1 µM
[6] = target: Beta-secretase 1 (Homo sapiens, UniProt P56817); assay: Inhibition of recombinant human C-terminal His10-tagged BACE1 using Mca-SEVNLDAEFRK(Dpn)RR-NH2 as substrate measured after 60 mins by TR-FRET assay
[7] = target: Plasmepsin II (Plasmodium falciparum, UniProt P46925); assay: Inhibition of Plasmodium falciparum plasmepsin 2 using EDANS-CO-CH2-CH2-CO-ALERMFLSFP-Dap(DABCYL)OH as substrate measured after 60 mins by fluorescence assay
[8] = target: Plasmepsin 4 (Plasmodium falciparum, UniProt Q17SB2); assay: Inhibition of Plasmodium falciparum plasmepsin 4 using EDANS-CO-CH2-CH2-CO-ALERMFLSFP-Dap(DABCYL)OH as substrate measured after 60 mins by fluorescence assay
[9] = Intrinsic clearance in mouse liver microsomes at 1 uM measured after 30 mins in presence of NADPH by LC-MS/MS analysis; assay type: ADME, Microsome; details: 0.5 h
[10] = tested on: HepG2; assay: Cytotoxicity against human HepG2 cells measured after 72 hrs by PrestoBlue cell viability reagent based assay; details: HepG2, 72 h
[11] = target: Plasmepsin V (Plasmodium falciparum (isolate 3D7)) (UniProt Q8I6Z5); assay: Inhibition of Plasmodium falciparum plasmepsin 5 by knockdown assay
[12] = tested on: Plasmodium falciparum; assay: Inhibition of Plasmodium falciparum plasmepsin 9 by Western blot analysis
[13] = tested on: Plasmodium falciparum; assay: Inhibition of Plasmodium falciparum plasmepsin 10 by Western blot analysis
[14] = Half life in mouse at 1 mg/kg, iv by LC-MS analysis; assay type: ADME, organism-based; details: in vivo
[15] = Apparent clearance in mouse at 1 mg/kg, iv by LC-MS analysis; assay type: ADME, organism-based; details: in vivo, read-out: CL(app)
[16] = Apparent volume of distribution in mouse at 1 mg/kg, iv by LC-MS analysis; assay type: ADME, organism-based; details: in vivo, read-out: Vz
[17] = tested on: Plasmodium chabaudi; assay: Antimalarial activity against chloroquine-resistant Plasmodium chabaudi ASCQ infected in NIH mouse assessed as inhibition of parasitemia at 10 mg/kg, po administered once daily for 4 days starting from 4 hrs post-infection and measured on day 4 by Peter's 4 day test relative to control; assay type: functional

Chain of Plasmepsin II (P46925 whole entry): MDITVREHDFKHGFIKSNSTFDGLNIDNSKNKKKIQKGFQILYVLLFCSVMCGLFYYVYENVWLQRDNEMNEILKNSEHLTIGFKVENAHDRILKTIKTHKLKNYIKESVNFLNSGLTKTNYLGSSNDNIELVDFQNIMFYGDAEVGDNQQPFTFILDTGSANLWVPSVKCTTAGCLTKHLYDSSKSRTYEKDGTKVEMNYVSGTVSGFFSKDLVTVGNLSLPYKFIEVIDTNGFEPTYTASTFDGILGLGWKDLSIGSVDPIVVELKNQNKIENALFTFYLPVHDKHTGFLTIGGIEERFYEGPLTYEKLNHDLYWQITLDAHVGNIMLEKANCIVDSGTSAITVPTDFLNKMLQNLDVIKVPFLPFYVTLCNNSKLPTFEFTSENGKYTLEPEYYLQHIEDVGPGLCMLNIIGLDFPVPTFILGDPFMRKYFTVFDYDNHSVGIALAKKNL
Chain of Voltage-gated inwardly rectifying potassium channel KCNH2 (Q12809 whole entry): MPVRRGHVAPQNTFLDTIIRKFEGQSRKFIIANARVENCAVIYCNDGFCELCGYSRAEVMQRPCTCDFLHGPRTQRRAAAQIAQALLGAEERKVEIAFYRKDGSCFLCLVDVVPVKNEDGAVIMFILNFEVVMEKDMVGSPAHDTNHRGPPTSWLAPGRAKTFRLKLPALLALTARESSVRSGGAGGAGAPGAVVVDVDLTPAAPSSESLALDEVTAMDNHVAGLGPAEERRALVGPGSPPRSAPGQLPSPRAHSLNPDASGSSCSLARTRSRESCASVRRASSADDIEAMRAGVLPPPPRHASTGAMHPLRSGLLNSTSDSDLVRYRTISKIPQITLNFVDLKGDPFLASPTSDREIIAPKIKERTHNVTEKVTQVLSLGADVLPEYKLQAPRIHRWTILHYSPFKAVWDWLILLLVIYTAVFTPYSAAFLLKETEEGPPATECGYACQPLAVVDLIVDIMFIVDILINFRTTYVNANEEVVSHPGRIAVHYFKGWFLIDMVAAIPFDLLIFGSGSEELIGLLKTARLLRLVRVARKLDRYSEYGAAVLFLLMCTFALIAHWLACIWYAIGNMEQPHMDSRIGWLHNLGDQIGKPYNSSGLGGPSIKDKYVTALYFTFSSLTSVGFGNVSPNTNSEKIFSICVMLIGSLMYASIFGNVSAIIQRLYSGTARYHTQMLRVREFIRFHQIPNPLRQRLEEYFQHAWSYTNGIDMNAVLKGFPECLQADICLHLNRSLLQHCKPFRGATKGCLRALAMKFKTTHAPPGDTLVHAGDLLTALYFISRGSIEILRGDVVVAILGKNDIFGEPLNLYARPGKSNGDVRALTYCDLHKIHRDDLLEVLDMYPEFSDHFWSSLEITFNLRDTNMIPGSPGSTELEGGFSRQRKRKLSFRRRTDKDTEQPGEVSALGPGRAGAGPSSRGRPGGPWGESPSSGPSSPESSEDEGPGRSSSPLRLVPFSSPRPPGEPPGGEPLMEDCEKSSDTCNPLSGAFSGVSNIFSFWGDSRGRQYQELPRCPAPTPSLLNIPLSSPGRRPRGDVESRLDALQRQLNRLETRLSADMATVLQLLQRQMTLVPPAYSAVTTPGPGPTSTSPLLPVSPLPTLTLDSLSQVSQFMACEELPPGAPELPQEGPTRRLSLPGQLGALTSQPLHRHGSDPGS
Chain of Plasmepsin 4 (Q17SB2 whole entry): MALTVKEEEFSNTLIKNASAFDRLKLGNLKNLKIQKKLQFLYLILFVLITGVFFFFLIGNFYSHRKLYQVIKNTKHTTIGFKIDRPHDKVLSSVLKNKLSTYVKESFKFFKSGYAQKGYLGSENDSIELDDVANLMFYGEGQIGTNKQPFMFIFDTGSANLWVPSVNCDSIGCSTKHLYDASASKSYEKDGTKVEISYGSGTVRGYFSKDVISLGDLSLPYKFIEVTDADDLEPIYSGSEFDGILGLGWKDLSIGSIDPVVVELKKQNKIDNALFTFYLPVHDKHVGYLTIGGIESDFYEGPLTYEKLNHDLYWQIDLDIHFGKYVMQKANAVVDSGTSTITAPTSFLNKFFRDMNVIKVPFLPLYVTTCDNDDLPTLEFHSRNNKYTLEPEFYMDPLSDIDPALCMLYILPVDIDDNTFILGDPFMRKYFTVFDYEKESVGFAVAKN
Chain of Beta-secretase 1 (P56817 whole entry): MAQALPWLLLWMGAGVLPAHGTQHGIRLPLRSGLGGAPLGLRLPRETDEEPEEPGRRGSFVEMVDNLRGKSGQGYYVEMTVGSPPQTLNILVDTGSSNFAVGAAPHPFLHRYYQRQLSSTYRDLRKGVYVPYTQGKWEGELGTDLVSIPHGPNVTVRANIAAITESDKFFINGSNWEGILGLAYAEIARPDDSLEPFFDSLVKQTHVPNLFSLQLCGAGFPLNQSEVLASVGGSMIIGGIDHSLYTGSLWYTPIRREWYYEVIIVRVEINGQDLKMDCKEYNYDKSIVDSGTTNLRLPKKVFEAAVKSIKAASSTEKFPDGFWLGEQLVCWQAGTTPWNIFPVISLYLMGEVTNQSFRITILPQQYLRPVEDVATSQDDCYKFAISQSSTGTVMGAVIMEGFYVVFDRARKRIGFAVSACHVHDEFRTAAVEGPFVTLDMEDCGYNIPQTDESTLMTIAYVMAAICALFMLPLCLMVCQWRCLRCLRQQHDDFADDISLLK
Chain of Plasmepsin V (Plasmodium falciparum (isolate 3D7)) (Q8I6Z5 whole entry, looked up): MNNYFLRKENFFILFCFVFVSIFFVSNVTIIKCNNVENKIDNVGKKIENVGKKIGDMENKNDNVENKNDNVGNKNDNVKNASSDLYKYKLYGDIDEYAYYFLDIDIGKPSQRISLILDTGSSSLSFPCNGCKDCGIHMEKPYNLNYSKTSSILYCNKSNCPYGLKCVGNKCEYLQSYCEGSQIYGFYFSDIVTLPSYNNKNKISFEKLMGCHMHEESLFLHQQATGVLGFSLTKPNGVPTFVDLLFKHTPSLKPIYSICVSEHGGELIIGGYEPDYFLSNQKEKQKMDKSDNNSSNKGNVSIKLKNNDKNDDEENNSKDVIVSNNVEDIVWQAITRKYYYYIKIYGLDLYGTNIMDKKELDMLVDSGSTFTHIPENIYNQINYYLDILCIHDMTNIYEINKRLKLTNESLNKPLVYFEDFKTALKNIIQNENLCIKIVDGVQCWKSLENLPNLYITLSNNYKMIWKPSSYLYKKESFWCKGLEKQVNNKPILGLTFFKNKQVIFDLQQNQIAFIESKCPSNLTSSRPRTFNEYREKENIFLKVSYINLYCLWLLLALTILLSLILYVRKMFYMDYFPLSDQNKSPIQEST

C[C@H](NC(=O)[C@H]1CNC[C@@H]1c1ccc(C(F)(F)F)nc1)c1ccc(N(C)C)cc1
pIC50 [1]: < 4.30
selectivity ratio [2]: > 357
pIC50 [3]: 6.85

C[C@@H](NC(=O)[C@H]1CNC[C@@H]1c1ccc(C(F)(F)F)nc1)c1ccc(N(C)C)cc1
pIC50 [3]: 4.96

O=C(NCc1ccc(-c2ccccc2)cc1)[C@H]1CNC[C@@H]1c1ccc(C(F)(F)F)nc1
pIC50 [3]: 5.23

O=C(NCc1ccc(Br)cc1)[C@H]1CNC[C@@H]1c1ccc(C(F)(F)F)nc1
pIC50 [3]: 5.92

CN(C)c1ccc(CNC(=O)[C@H]2CNC[C@@H]2c2ccc(C(F)(F)F)nc2)cc1
pIC50 [4]: 6.94

O=C(NCc1ccc(-n2cccn2)cc1)[C@H]1CNC[C@@H]1c1ccc(C(F)(F)F)nc1
pIC50 [3]: 4.54

CN(C)c1ccc(CNC(=O)[C@H]2CNC[C@@H]2c2ccc(C(F)(F)F)nc2)cn1
pIC50 [3]: 6.00

C[C@H](NC(=O)[C@@H]1CNC[C@H]1c1ccc(C(F)(F)F)cc1)c1ccc(N(C)C)cc1
pIC50 [3]: 6.89

C[C@H](NC(=O)[C@@H]1CNC[C@H]1c1ccc(C(F)(F)F)nc1)c1ccc(N(C)C)cc1
pIC50 [3]: 6.42

O=C(NCc1ccc(C(F)(F)F)nc1)[C@H]1CNC[C@@H]1c1ccc(C(F)(F)F)nc1
pIC50 [3]: 4.74

CN(C)c1ccc(CNC(=O)[C@H]2CNC[C@@H]2c2ccc(C(F)(F)F)cc2)cc1 (racemic)
t1/2 [5]: 35 min
pIC50 [6]: < 5.00
pIC50 [7]: < 5.00
pIC50 [8]: < 5.00
Intrinsic clearance (CLint) [9]: 6.2 µL/min/mg
pIC50 [1]: 5.03
pIC50 [3]: 6.70

Cc1ccc([C@@H]2CNC[C@H]2C(=O)NCc2ccc(N(C)C)cc2)cc1Cl (racemic)
pIC50 [3]: 6.64

CN(C)c1ccc(CNC(=O)[C@H]2CNC[C@@H]2c2ccc3ccsc3c2)cc1 (racemic)
pIC50 [3]: 6.62

CN(C)Cc1ccc(CNC(=O)[C@H]2CNC[C@@H]2c2ccc(C(F)(F)F)nc2)cc1 (racemic)
pIC50 [3]: < 4.70

CN(C)c1ccc(CNC(=O)[C@@H]2CNC[C@H]2c2ccc(Oc3ccccc3)cc2)cc1 (racemic)
t1/2 [5]: 31 min
pIC50 [6]: < 5.00
pIC50 [7]: < 5.00
pIC50 [8]: < 5.00
Intrinsic clearance (CLint) [9]: 7.2 µL/min/mg
pIC50 [1]: 5.68
pIC50 [3]: 6.77

CN(C)c1ccc(CNC(=O)[C@@H]2CNC[C@H]2c2cccc(Oc3ccccc3)c2)cc1 (racemic)
pIC50 [3]: 5.74

CN(C)c1ccc(CNC(=O)[C@H]2CNC[C@@H]2c2ccc(C(F)(F)F)s2)cc1 (racemic)
pIC50 [3]: 5.96

CN(C)c1ccc(CNC(=O)[C@H]2CNC[C@@H]2c2ccc(C(C)(F)F)cc2)cc1 (racemic)
pIC50 [3]: 6.89

CN(C)c1ccc(CNC(=O)[C@@H]2CNC[C@H]2c2ccc(Cl)cc2)cc1 (racemic)
pIC50 [3]: 6.17

CN(C)c1ccc(CNC(=O)[C@@H]2CNC[C@H]2c2cnc3ccccc3c2)cc1 (racemic)
pIC50 [3]: 6.55

CN(C)c1ccc(CNC(=O)[C@H]2CNC[C@@H]2c2ccc(C(F)F)cc2)cc1 (racemic)
pIC50 [3]: 6.60

CN(C)c1ccc(CNC(=O)[C@H]2CNC[C@@H]2c2cc3ccccc3s2)cc1 (racemic)
pIC50 [3]: 6.57

CN(C)c1ccc(CNC(=O)[C@H]2CNC[C@@H]2c2cc(C(F)(F)F)n(C)n2)cc1 (racemic)
pIC50 [3]: 5.28

CN(C)c1ccc(CNC(=O)[C@H]2CNC[C@@H]2c2ccc(C(C)(C)C)s2)cc1 (racemic)
pIC50 [3]: 6.55

CN(C)c1ccc(CNC(=O)[C@@H]2CNC[C@H]2c2ccc(C(F)(F)F)c(F)c2)cc1 (racemic)
t1/2 [5]: 34 min
pIC50 [6]: < 5.00
pIC50 [7]: < 5.00
pIC50 [8]: < 5.00
Intrinsic clearance (CLint) [9]: 6.4 µL/min/mg
pIC50 [1]: 5.07
pIC50 [3]: 6.85

CCN(CC)c1ccc(CNC(=O)[C@@H]2CNC[C@H]2c2ccc(C(F)(F)F)cc2)cc1 (racemic)
pIC50 [6]: < 5.00
pIC50 [7]: < 5.00
pIC50 [8]: < 5.00
pIC50 [1]: 5.32
pIC50 [3]: 6.22

CN(C)c1ccc(CNC(=O)[C@@H]2CNC[C@H]2c2ccc(C(F)(F)F)cc2F)cc1 (racemic)
pIC50 [3]: 6.05

CN(C)c1ccc(CNC(=O)[C@H]2CNC[C@@H]2c2cc3ccccc3o2)cc1 (racemic)
pIC50 [3]: 6.82

COc1ccc(CNC(=O)[C@@H]2CNC[C@H]2c2ccc(C(F)(F)F)cc2)cc1 (racemic)
pIC50 [10]: 4.48
half-life at 1 µM ([5]; liver microsomes): 37 min
inhibition [11]: inactive
inhibition [12]: inactive
inhibition [13]: inactive
pIC50 [3]: 6.41 to 6.44

O=C(NCc1ccccc1)[C@@H]1CNC[C@H]1c1ccc(C(F)(F)F)cc1 (racemic)
pIC50 [3]: 5.37

CN(C)c1ccc(CNC(=O)[C@@H]2CNC[C@H]2CCc2ccc(C(F)(F)F)cc2)cc1 (racemic)
pIC50 [3]: 5.36

Cc1ccc(CNC(=O)[C@@H]2CNC[C@H]2c2ccc(C(F)(F)F)cc2)cc1 (racemic)
t1/2 [5]: 161 min
pIC50 [6]: < 5.00
pIC50 [7]: < 5.00
pIC50 [8]: < 5.00
Intrinsic clearance (CLint) [9]: 1.4 µL/min/mg
half-life [14]: 102 min
clearance [15]: 52 mL/min/kg
Vd [16]: 7.3 L/kg
pIC50 [3]: 6.34

Cc1ccc([C@@H]2CNC[C@H]2C(=O)NCc2ccc(N(C)C)cc2)cc1 (racemic)
pIC50 [3]: 6.12

CN(C)c1ccc(CNC(=O)[C@H]2CNC[C@@H]2c2cccc(S(F)(F)(F)(F)F)c2)cc1 (racemic)
pIC50 [3]: 6.39

CN1CCc2cc(CNC(=O)[C@@H]3CNC[C@H]3c3ccc(C(F)(F)F)cc3)ccc21 (racemic)
pIC50 [3]: 6.64

O=C(NCc1ccc(N2CCCC2)cc1)[C@H]1CNC[C@@H]1c1ccc(C(F)(F)F)nc1 (racemic)
pIC50 [3]: 6.19

CN(C)c1ccc(CNC(=O)[C@H]2CNC[C@@H]2c2cnc(C(F)(F)F)s2)cc1 (racemic)
pIC50 [3]: 5.82

CN(C)c1ccc(CNC(=O)[C@@H]2CNC[C@H]2c2ccc(C(F)(F)F)c(Cl)c2)cc1 (racemic)
t1/2 [5]: 33 min
pIC50 [6]: < 5.00
pIC50 [7]: < 5.00
pIC50 [8]: < 5.00
Intrinsic clearance (CLint) [9]: 6.7 µL/min/mg
pIC50 [1]: 5.12
pIC50 [3]: 7.08

CN(C)c1ccc(CNC(=O)[C@@H]2CNC[C@H]2c2ccc(Oc3ccccn3)cc2)cc1 (racemic)
pIC50 [3]: 4.80

CN(C)c1ccc(CNC(=O)[C@H]2CNC[C@@H]2c2cnc(C(F)(F)F)nc2)cc1 (racemic)
pIC50 [1]: < 4.30
selectivity ratio [2]: > 111
pIC50 [3]: 6.35

CN(C)c1ccc(CNC(=O)[C@@H]2CNC[C@H]2c2ccc(C(F)(F)F)cc2Cl)cc1 (racemic)
pIC50 [3]: 6.47

CN(C)c1ccc(CNC(=O)[C@@H]2CNC[C@H]2c2ccc(C(C)(C)C)cc2)cc1 (racemic)
pIC50 [3]: 6.72

CN(C)c1ccc(CNC(=O)[C@H]2CNC[C@@H]2c2ccc(S(F)(F)(F)(F)F)cc2)cc1 (racemic)
pIC50 [3]: 6.33

CN(C)c1ccc(CNC(=O)[C@@H]2CNC[C@H]2c2ccc(Cl)c(Cl)c2)cc1 (racemic)
pIC50 [3]: 6.89

CN(C)c1ccc(CNC(=O)[C@H]2CNC[C@@H]2c2ccc3sccc3c2)cc1 (racemic)
pIC50 [3]: 6.66

C[C@@H]1CC[C@H]2[C@@H](C)C(=O)O[C@@H]3O[C@@]4(C)CC[C@@H]1[C@]32OO4 [ARTEMISININ]
pIC50 [3]: 7.27

CCN(CC)CCCC(C)Nc1ccnc2cc(Cl)ccc12 (configuration not stated) [CHLOROQUINE]
inhibition in vivo at 10 mg/kg [17]: 95%
